The subject of one data set is human subcutaneous veins. Put plainly: Vascular tonicity of human subcutaneous veins ex vivo, myography. It is filed as cell-based. Particulars: for EC50 / Emax (% max. contraction vs. 80 mM KCL): human subcutaneous vein, n=1; for EC50: dose-response. How it is done: (§1) Human subcutaneous veins are isolated from healthy human skin derived from plastic surgery operative waste (abdominal plasty). On receipt the skin sample is held at 4° C. in a receptacle containing physiological saline solution (PSS) 1× at pH=7.4. Dissection, isolation and mounting of the veins are conducted in cold PSS pH=7.4 using straight forceps and a stereomicroscope. Once the vein is isolated and cleaned of surrounding fat and conjunctive tissue, a segment 2 mm in length and diameter of between 100 and 600 μm is mounted in the myograph chamber between two 40 μm tungsten wires attached to removable jaws connected to the tension sensor and held in physiological saline solution (PSS) at pH=7.4 and 37° C. To perform the myography study the vein is placed at working pre-tension (g) corresponding to physiological pressure of 18 mmHg. Pre-tensioning is obtained by mechanical action to draw apart the tungsten wires (40 μm). The viability of the vessel is verified by depolarising the membrane of the vessel smooth muscle cells by increasing the concentration of potassium in the chamber. To do so the PSS solution contained in each chamber is replaced by a solution containing 80 mM KCl at pH=7.4 and pre-heated to 37° C. This step must be repeated twice with 1×PSS washing to cause relaxation between each contraction. At this stage if there is no change in measured tension the isolated vessel is considered non-viable. Naratriptan was evaluated by dose-response (n=1) to determine its maximum contraction intensity (Emax) and strength (EC50). The vessel was treated with increasing successive doses of product added every 3 minutes to the myograph chamber. Tension data (g) are successively converted to: • Tension (mN) 1 g=9.81 mN • Tension applied to the vessel wall (mN/mm): by dividing the tension value in mN by twice the length of the vessel i.e. 4 mm.
(§2) Data are then expressed for the vasoconstrictor product in percentage contraction (%) taking as 100% the value obtained for treatment with 80 mM KCl at step 1 to verify vessel viability.
(§3) The method used for this study is identical to the method used in Example 1. To perform myographic studies the vein is placed at a pre-tension (g) corresponding to physiological pressure of 18 mmHg while the artery is placed at a pre-tension of 90 mmHg since an artery wall is thicker than a vein wall.
(§4) The myograph apparatus has four independent chambers. Therefore four vessel segments were mounted in parallel in each study. Each compound was subjected to dose-response evaluation for each type of vessel (n=1). The vessel was therefore treated with successive, increasing concentrations of product added every 3 minutes to the myograph chamber. The tested compounds were naratriptan, sumatriptan, almotriptan and Rizatriptan.

Data set [1] in a line: Release and penetration into dermatomized human skin (Franz cells). Format: in vitro ADME. Particulars: 2% in PBS; for Mass balance: mean.
Data set [2] relates to human subcutaneous artery. Briefly: Vascular tonicity of human subcutaneous arteries ex vivo, myography. Particulars: for EC50: sc, dose-response. It is filed as cell-based. How it is done: as §1, §2, §3, §4
Data set [3] concerns neurogenic inflammation induced in mouse ear. Briefly: Neurogenic inflammation assay, mouse ear, reziniferatoxin (RTX). It is filed as in vivo. The procedure:
The compound was then tested in a water/ethanol carrier to increase solubility.

A word on the EC50: it is the concentration needed to bring the measured effect to its halfway point. `CN(C)CCc1c[nH]c2ccc(CS(=O)(=O)N3CCCC3)cc12` [Almotriptan, almotriptan]: in the data set with human subcutaneous veins, the EC50 came out at 62 nM and the “Emax (% max. contraction vs. 80 mM KCL)” value worked out at 97%. For the same molecule, in data set [1], the Total skin turned out to be 1.86 % applied dose and the Mass balance is on record as 94.16 % applied dose.

`CNS(=O)(=O)CCc1ccc2[nH]cc(C3CCN(C)CC3)c2c1` [Naratriptan, N-methyl-2-[3-(1-methylpiperidin-4-yl)-1H-indol-5-yl]ethanesulfonamide]: in the data set on human subcutaneous veins (Example 1, after removal of compound from the chamber), the “Persistent effect on the human vein after successive washings, time after removal of the compound” value is no more than 90 min. Besides, in the data set on human subcutaneous veins, the EC50 amounted to 13 nM and the “Emax (% max. contraction vs. 80 mM KCL)” value stood at 105%. In data set [2] (n=1), the “Emax (% max. contraction vs. 80 mM KCl)” value is 82% and the response was half-maximal at 20 nM (EC50). Further, the “Inhibition of neurogenic inflammation” value in data set [3] (1% in acetone carrier, up to 45 minutes after treatment, single RTX application) is reported as “significantly inhibited”. In data set [3] (1% topical in water/ethanol carrier, treatment time 15 minutes), the “Inhibition of neurogenic inflammation” value is “significant inhibition”. Further, in data set [1], the Total skin is 3.46 % applied dose and the Mass balance amounted to 91.22 % applied dose. Further, the Total skin in data set [1] (listed as Naratriptan hydrochloride) came to 3.61 % applied dose.

For the molecule `CN(C)CCc1c[nH]c2ccc(Cn3cncn3)cc12` [Rizatriptan, rizatriptan], in the data set with human subcutaneous veins, the EC50 is 93 nM and the “Emax (% max. contraction vs. 80 mM KCL)” value worked out at 94%. For the same molecule, in data set [2] (n=1), the “Emax (% max. contraction vs. 80 mM KCl)” value is on record as 54% and the EC50 is 217 nM.

For the molecule `CNS(=O)(=O)Cc1ccc2[nH]cc(CCN(C)C)c2c1` [Sumatriptan, sumatriptan], in the data set with human subcutaneous veins, it took 65 nM to reach a half-maximal effect (EC50) and the “Emax (% max. contraction vs. 80 mM KCL)” value is recorded as 101%. Also, in data set [2] (n=1), the “Emax (% max. contraction vs. 80 mM KCl)” value is reported as 61% and a half-maximal effect (EC50) was put at 138 nM. Further, the “Emax (% max. contraction vs. 80 mM KCl)” value in data set [2] (n=1, listed as sumatriptan) amounted to 70%.

The record behind these values is patent US9889126B2, “Use of naratriptan in the treatment of rosacea” (GALDERMA RESEARCH & DEVELOPMENT, priority 2013, dated 2018).
